Experimental data taken from patent US5296491A, “Pyrazolo[4,3-c]pyridines and their use as serotonin reuptake inhibitors” (Hoechst-Roussel Pharmaceuticals Inc., priority 1993, dated 1994).
Where a name gives a salt, the structure may show the parent alone.

test system: serotonin (5-hydroxytryptamine (5HT)) uptake; experiment: [^3 H]-Serotonin Uptake in Rat Whole Brain and Hypothalamic Synaptosomes; type: biochemical, rat (male Wistar); settings: [^3 H]-5HT 50 nM, 5 minutes, 37° C., log probit analysis
Procedure: [^3 H]-Serotonin Uptake in Rat Whole Brain and Hypothalamic Synaptosomes
This activity is determined in an assay which measures [^3 H]-serotoninuptake in rat whole brain and hypothalamic synaptosomes. The assay described below is used as a biochemical screen for potential antidepressants which block serotonin (5-hydroxytryptamine (5HT)) uptake.
Male CR Wistar rats (100-125 g)
1. Krebs-Henseleit Bicarbonate Buffer, pH 7.4 (KHBB):
Prepare a 1 liter batch containing the following salts.
Prior to use add to 200 ml, per assay:
The batch is aerated for 60 minutes with 95% 02 /5% CO2, the pH is checked to insure it is at 7.4±0.1, then add bovine serum albumin (Sigma cat# A-7906) 1 mg/ml.
Make a 4 liter batch, containing the following salts:
3. Sucrose solution: 0.32M sucrose containing 5 mM HEPES and 0.1 mM EDTA; pH to 7.3 using Tris base.
4. A 0.1 mM stock solution of serotonin creatinine SO4 is made up in 0.01N HCl. This is used to dilute the specific activity of the radiolabeled 5HT.
5. 5-[1,2-^3 H(N)]-Hydroxytryptamine creatinine sulfate (serotonin), specific activity 20-30 Ci/mmol, is used.
The final desired concentration of [^3 H]-5HT in the assay is 50 nM. The dilution factor is 0.8. The KHBB is made up to contain 62.5 nM of [^3 H]-5HT.
6. For most assays, a 0.5 mM stock solution of the test compound is made up initially in either 10 μl of glacial acetic acid, 100 μl DMSO or 10 μl of the recrystallization solvent, to which is added approximately 10 ml of distilled water. Compounds are initially screened in duplicate at 3 concentrations (10^-8, 10^-7 and 10^-6 M) made up in water.
The Percoll method for preparing synaptosomes has been modified from Nagy, A., Delgado-Escueta, A. V. J. Neurochem. 43, 1114 (1984) and Dunkley, P. R., Jarvie, R. E., Heath, J. W., Kidd, G. J., Rostas, J. A. P. Brain Research 372, 115 (1986). Male Wistar rats are decapitated and the brain rapidly removed. Whole brain (minus cerebellum) is weighed and homogenized in 15 volumes of ice cold Sucrose solution using a Potter-Elvejhem homogenizer. The following procedures are performed on ice. Homogenization should be done with 4-5 up and down strokes at medium speeds (setting 4.5 to 5) to minimize synaptosome lysis. The homogenate is centrifuged at 1000 g (3000 rpm, Sorvall SS-34 rotor) for 10 minutes at 0°-4° C. The supernatant is removed and approximately 10 ml per tube is carefully layered onto a discontinuous Percoll (Sigma cat# P-1644) gradient: 21% Percoll in Sucrose solution at the bottom (15 ml per tube) and 10% Percoll in the middle ( 10 ml; colored with a few drops of phenol red for visibility).
The Percoll gradient tubes are carefully placed into a Beckman SW-28 swinging bucket rotor and spun in a Beckman XL90 ultracentrifuge using the following program: speed, 11,000 rpm (15,000 g) for 30 minutes at 4° C.; slow acceleration and deceleration (acceleration setting 9; deceleration setting 3). Tubes are carefully removed, and the top layer and the top part of the middle (red) layer are discarded using a pasteur pipette. The synaptosomes are located in the white fluffy band at the interface between the 10% and 21% Percoll layers. This is carefully removed, placed in a centriguge tube, diluted with KHBB and spun at 21,000 g (13,000 rpm, Sorvall SS-34 rotor). The pellet (synaptosomes) is resuspended in KHBB (10 vol per gram original brain wet weight; 1 brain minus cerebellum weighs approximately 1.2 g; 2.5 brains are needed per typical assay).
200 μl of the tissue suspension are added to each of 24 tubes (at a time) containing the 20 μl of vehicle or drug on ice. Three minutes later, 800 μl of KHBB containing [^3 H]-5HT are added, and the tubes are vortexed. The rack containing the 24 tubes is moved from the ice bath to a water bath set at 37° C. The tubes are incubated for 5 minutes under 95% O2 /5% CO2.

Row | Compound | IC50 [nM]
1 | NCCCn1nc(-c2ccc(Cl)c(Cl)c2Cl)c2cnccc21 [Example 2FF, 1-(3-aminopropyl)-3-(2,3,4-trichlorophenyl)-1H-pyrazolo[4,3-c]pyridine fumarate] | 23
2 | Cc1ccccc1-c1nn(CCN)c2ccncc12 [1-(2-aminoethyl)-3-(2-methylphenyl)-1H-pyrazolo[4,3-c]pyridine] | 870
3 | NCCn1nc(-c2ccc(Cl)c(Cl)c2)c2cnccc21 [Example 2L, 1-(2-aminoethyl)-3-(3,4-dichlorophenyl)-1H-pyrazolo[4,3-c]pyridine maleate] | 210
4 | NCCCn1nc(-c2ccc(Cl)c(Cl)c2)c2cnccc21 [Example 2K, 1-(3-aminopropyl)-3-3,4-dichlorophenyl)-1H-pyrazolo[4,3-c]pyridine maleate] | 240
5 | NCCn1nc(-c2ccc(C(F)(F)F)cc2)c2cnccc21 [Example 2Q, 1-(2-aminoethyl)-3-(4-trifluoromethylphenyl)-1H-pyrazolo[4,3-c]pyridine maleate] | 1240
6 | NCCn1nc(-c2ccc(Cl)cc2Cl)c2cnccc21 [Example 2S, 1-(2-amimoethyl)-3-(2,4-dichlorophenyl)-1H-pyrazolo[4,3-c]pyridine fumarate] | 58
7 | NCCCCn1nc(-c2ccc(Cl)cc2Cl)c2cnccc21 [1-(4-aminobutyl)-3-(2,4-dichlorophenyl)-1H-pyrazolo[4,3-c]pyridine dimaleate] | 95
8 | NCCn1nc(-c2ccccc2Br)c2cnccc21 [Example 2A, 1-(2-aminoethyl)-3-(2-bromophenyl)-1H-pyrazolo[4,3-c]pyridine dihydrochloride] | 1530
9 | NCCCn1nc(-c2cccc(Cl)c2Cl)c2cnccc21 [Example 2DD, 1-(3-aminopropyl)-3-(2,3-dichlorophenyl)-1H-pyrazolo[4,3-c]pyridine fumarate] | 410
10 | NCCCn1nc(-c2ccc(Cl)cc2)c2cnccc21 [Example 2D, 1-[3-aminopropyl]-3-(4-chlorophenyl)-1H-pyrazolo[4,3-c]pyridine dimaleate] | 770
11 | NCCn1nc(-c2ccc(Br)cc2)c2cnccc21 [Example 2H, 1-(2-aminoethyl)-3-(4-bromophenyl)-1H-pyrazolo[4,3-c]pyridine] | 940
12 | NCCn1nc(-c2cccc(Cl)c2Cl)c2cnccc21 [Example 2CC, 1-(2-aminoethyl)-3-(2,3-dichlorophenyl)-1H-pyrazolo[4,3-c]pyridine fumarate] | 210
13 | NCCn1nc(-c2ccc(Cl)c(Cl)c2Cl)c2cnccc21 [Example 2EE, 1-(2-aminoethyl)-3-(2,3,4-trichlorophenyl)-1H-pyrazolo[4,3-c]pyridine fumarate] | 49
